Measured values from patent publication US9849151B2, “Salacia compositions, methods of treatment by their administration, and methods of their preparation” (priority 2013, dated 2017).

Legend:
[1] = Antioxidant activity by DPPH assay; conditions: at 20 μM
Experimental: The capacity of plant extracts or fractions to directly react with and quench free radicals was evaluated as described earlier (Cheng et al 2006). A stock solution of DPPH (200 μM) was prepared in ethanol. The assay was performed in 96-well plates. The reaction mixture, containing 100 μL of DPPH and 100 μL of test sample, was incubated at 37° C. for 30 min. The absorbance was measured at 515 nm. Gallic acid was used as a positive control. Percent DPPH radical scavenging activity was calculated as follows. [Reference: Cheng Z, Morre J, Yub L (2006) J Agric Food Chem, 54: 7429-7436] % radical scavenging activity=[1−(sample-blank)/(control-blank)]×100

[2] = system: 3T3L1 cells; assay: Lipolysis assay, glycerol release in 3T3L1 adipocytes; type: cell-based; conditions: 24 h, Salacia composition 100 ug/ml, isoproterenol 10 uM, ratio higher than 1.40 = enhances lipolysis
Experimental: The assay is carried out to assess the ability of the extracts to breakdown triglycerides to glycerol and free fatty acids. The Salacia composition, such as that of Example 1 was screened for lipolysis in 3T3L1 cell model. 3T3L1 preadipocytes were cultured for a week in Dulbecco modified Eagle's medium (DMEM) supplemented with 10% new calf serum, 25 mM glucose, 2 mM glutamine, 100 U/ml penicillin, 100 ug/ml streptomycin at 37° C. in 5% CO2 atmosphere until 100% confluence. Two days after confluence, the differentiation of 3T3L1 into adipocytes was initiated using (DMEM) supplemented with 10% fetal bovine serum (FBS), 25 mM glucose, 2 mM glutamine, 100 U/ml penicillin, 100 ug/ml streptomycin and differentiation inducers (0.5 mM isobutyl-methylxanthine (IBMX), 10 μg/ml insulin and 1 μM dexamethasone) for 48 h (day 0-day 2). The cells were then cultured for another 48 h with the same medium containing only 10 μg/ml insulin (day 2 to day 4), then with only the medium (day 4 to day 6). The Salacia composition, such as that of Example 1 was added to the medium at the concentration 100 ug/ml for 24 h and assessed for lipolysis. […] The glycerol released after 24 h in the cell media was assessed using glycerol reagent (sigma) and expressed relative to the cellular protein content. The protein content was assessed using bicinchoninic acid (BCA) PierceTM kit. […]

[3] = system: Hormone Sensitive lipase (HSL); assay: Hormone Sensitive Lipase assay, Western blot densitometry of adipocyte lysates; type: cell-based; conditions: 3T3L1 adipocytes treated 24 h, non-treated = 1.00
Experimental: The glycerol released after 24 h in the cell media was assessed using glycerol reagent (sigma) and expressed relative to the cellular protein content. The protein content was assessed using bicinchoninic acid (BCA) PierceTM kit. […] Proteins were collected from cell lysates of 3T3L1 adipocytes treated for 24 h with the Salacia composition or isoproterenol. Protein samples were blotted and probed for total hormone sensitive lipase (HSL), and phosphorylated hormone sensitive lipase at […]. Then, the ratio of phosphorylated-HSL to total HSL was compared between treated and non-treated samples.

O=C(O)c1cc(O)c(O)c(O)c1 [Gallic acid]
% radical scavenging activity (DPPH) [1]: 86%

CC(C)NCC(O)c1ccc(O)c(O)c1 (centres unmarked) [Isoproterenol]
Glycerol/protein ratio [2]: 1.50
Phospho-HSL (densitometry) ([3]; Serine 563): 2.63
Ratio phosphorylated-HSL/Total HSL [3]: 1.01
Total HSL (densitometry) [3]: 2.60
